{"source": "ChEMBL document CHEMBL1157277", "about": "“Antifungal and antibacterial metabolites from a sclerotium-colonizing isolate of Mortierella vinacea” (1999)", "key": {"[1]": {"test_system": "Fusarium verticillioides", "test": "Antimicrobial activity against Fusarium verticillioides NRRL 25457 at 250 ug/disk by standard disk assay after 48 hrs", "format": "functional", "conditions": "for zone of inhibition at 250 µg/disc: NRRL 25457, 48 h, read-out: IZ"}, "[2]": {"test_system": "Aspergillus flavus", "test": "Antimicrobial activity against Aspergillus flavus NRRL 6541 at 250 ug/disk by standard disk assay", "format": "functional, organism-based"}, "[3]": {"test_system": "Fusarium verticillioides", "test": "Antimicrobial activity against Fusarium verticillioides NRRL 25457 at 100 ug/disk by standard disk assay after 48 hrs", "format": "functional, organism-based"}, "[4]": {"test_system": "Candida albicans", "test": "Antimicrobial activity against Candida albicans ATCC 10453 at 100 ug/disk by standard disk assay", "format": "functional", "conditions": "read-out: IZ"}, "[5]": {"test_system": "Candida albicans", "test": "Antimicrobial activity against Candida albicans ATCC 10453 at 50 ug/disk by standard disk assay", "format": "functional", "conditions": "read-out: IZ"}, "[6]": {"test_system": "Bacillus subtilis", "test": "Antimicrobial activity against Bacillus subtilis ATCC 6051 at 50 ug/disk by standard disk assay", "format": "functional, organism-based"}, "[7]": {"test_system": "Staphylococcus aureus", "test": "Antimicrobial activity against Staphylococcus aureus ATCC 14053 at 50 ug/disk by standard disk assay", "format": "functional, organism-based"}, "[8]": {"test_system": "Bacillus subtilis", "test": "Antimicrobial activity against Bacillus subtilis ATCC 6051 at 100 ug/disk by standard disk assay", "format": "functional", "conditions": "read-out: IZ"}, "[9]": {"test_system": "Staphylococcus aureus", "test": "Antimicrobial activity against Staphylococcus aureus ATCC 14053 at 100 ug/disk by standard disk assay", "format": "functional", "conditions": "read-out: IZ"}}, "note": "Calls of active or inactive are those of the source. The rule behind the calls is not given here."}
{"compound": "COC(=O)CNC(=O)c1c(C)c(C)c(O)c(C)c1O", "values": [{"measurement": "Activity", "setting": "[1]", "value": "inactive"}, {"measurement": "Activity", "setting": "[2]", "value": "inactive"}]}
{"compound": "NYSTATIN", "values": [{"measurement": "inhibition zone (IZ)", "setting": "[3]", "value": 19, "unit": "mm"}]}
{"compound": "O=C(O)c1cccnc1", "note": "[NIACIN]", "values": [{"measurement": "zone of inhibition at 250 µg/disc", "setting": "[1]", "value": 30, "unit": "mm"}, {"measurement": "Activity", "setting": "[2]", "value": "inactive"}]}
{"compound": "CSC(=O)c1c(C)c(C)c(O)c(C)c1O", "note": "[MORTIVINACIN A]", "values": [{"measurement": "zone of inhibition at 250 µg/disc", "setting": "[1]", "value": 30, "unit": "mm"}, {"measurement": "Activity", "setting": "[2]", "value": "inactive"}, {"measurement": "zone of inhibition at 100 µg/disc", "setting": "[4]", "value": 15, "unit": "mm"}]}
{"compound": "COC(=O)[C@H](C)NC(=O)c1c(C)c(C)c(O)c(C)c1O", "values": [{"measurement": "Activity", "setting": "[1]", "value": "inactive"}, {"measurement": "Activity", "setting": "[2]", "value": "inactive"}]}
{"compound": "CCCCC[C@@H](O)[C@H]1C(=O)O[C@H](C)[C@@H](O)/C=C/C=C/C=C/C=C/C=C(\\C)[C@@H](O)C[C@H](O)C[C@H](O)C[C@H](O)C[C@H](O)C[C@H](O)C[C@@H]1O", "note": "[FILIPIN]", "values": [{"measurement": "zone of inhibition at 50 µg/disc", "setting": "[5]", "value": 15, "unit": "mm"}]}
{"compound": "GENTAMICIN SULFATE", "values": [{"measurement": "inhibition zone (IZ)", "setting": "[6]", "value": 24, "unit": "mm"}, {"measurement": "inhibition zone (IZ)", "setting": "[7]", "value": 24, "unit": "mm"}]}
{"compound": "COC(=O)c1c(C)c(C)c(O)c(C)c1O", "values": [{"measurement": "zone of inhibition at 100 µg/disc", "setting": "[8]", "value": 10, "unit": "mm"}, {"measurement": "zone of inhibition at 250 µg/disc", "setting": "[1]", "value": 30, "unit": "mm"}, {"measurement": "Activity", "setting": "[2]", "value": "inactive"}, {"measurement": "zone of inhibition at 100 µg/disc", "setting": "[9]", "value": 10, "unit": "mm"}]}
